Measurements: patent US12090143B1, “4-chloro-N′-(2-(5-phenyl-1,3,4-oxadiazol-2-ylthio)acetoxy)benzimidamide as an antimicrobial compound” (KING FAISAL UNIVERSITY, priority 2023, dated 2024)

Key:
Type in all cases: cell-based
[1] = system: Chrysosporium keratinophilum; assay: Agar plate disc-diffusion, antifungal, Chrysosporium keratinophilum; conditions: Sabouraud's dextrose agar, 37° C., 72 hours, DMSO zone subtracted
Method: (§1) The agar plate disc-diffusion method was applied. […] The discs were then placed onto the surface of agar plates (nutrient agar for bacteria and Sabouraud's dextrose agar for fungi) seeded with the test organism. Each plate contained 15 mL of the agar medium, previously seeded with 0.2 mL of the broth culture of each organism pregrown for 18 hours. The plates were incubated at 37° C. for 48 hours, and 72 hours for fungi. The inhibition zones was measured in mm. Discs impregnated with DMSO were used as a control, and its inhibition zone was subtracted from the tested compound actual inhibition zone.

[2] = system: Pseudomonas aeruginosa; assay: Agar plate disc-diffusion, antibacterial, Pseudomonas aeruginosa; conditions: nutrient agar, 37° C., 48 hours, DMSO zone subtracted
Method: as §1

[3] = system: Bacillus cereus; assay: Agar plate disc-diffusion, antibacterial, Bacillus cereus; conditions: nutrient agar, 37° C., 48 hours, DMSO zone subtracted
Method: as §1

[4] = system: Staphylococcus aureus; assay: Agar plate disc-diffusion, antibacterial, Staphylococcus aureus; conditions: nutrient agar, 37° C., 48 hours, DMSO zone subtracted
Method: as §1

[5] = system: Aspergillus flavus; assay: Agar plate disc-diffusion, antifungal, Aspergillus flavus; conditions: Sabouraud's dextrose agar, 37° C., 72 hours, DMSO zone subtracted
Method: as §1

[6] = system: Escherichia coli; assay: Agar plate disc-diffusion, antibacterial, Escherichia coli; conditions: nutrient agar, 37° C., 48 hours, DMSO zone subtracted
Method: as §1

[7] = A = concentration of comp. = 10,000 μL
[8] = B = concentration of comp. = 30,000 μL
[9] = C = concentration of comp. = 50,000 μL

N/C(=N\OC(=O)CSc1nnc(-c2ccccc2)o1)c1ccc(Cl)cc1 [Compound 3, 4-chloro-N′-(2-(5-phenyl-1,3,4-oxadiazol-2-ylthio)acetoxy)benzimidamide]
inhibition zone, Chrysosporium keratinophilum, A [1, 7]: 35 mm
inhibition zone, Chrysosporium keratinophilum, B [1, 8]: 26 mm
inhibition zone, Chrysosporium keratinophilum, C [1, 9]: 42 mm
inhibition zone, Pseudomonas aeruginosa, A ([2]; A =): 20 mm
inhibition zone, Pseudomonas aeruginosa, B [2, 8]: 26 mm
inhibition zone, Pseudomonas aeruginosa, C [2, 9]: 40 mm
inhibition zone, Bacillus Cereus, A [3, 7]: 26 mm
inhibition zone, Bacillus Cereus, B [3, 8]: 29 mm
inhibition zone, Bacillus Cereus, C [3, 9]: 39 mm
inhibition zone, Staphylococcus aureus, A [4, 7]: 25 mm
inhibition zone, Staphylococcus aureus, B [4, 8]: 27 mm
inhibition zone, Staphylococcus aureus, C [4, 9]: 39 mm
inhibition zone, Aspergillus flavus, A [5, 7]: 23 mm
inhibition zone, Aspergillus flavus, B [5, 8]: 27 mm
inhibition zone, Aspergillus flavus, C [5, 9]: 39 mm
inhibition zone, Escherichia coli, A ([6]; A =): 28 mm
inhibition zone, Escherichia coli, B [6, 8]: 36 mm
inhibition zone, Escherichia coli, C [6, 9]: 53 mm
